Source: publication PMC12621043, “Un-LOK-ing a New Approach for Conformational Selective Targeting of STK10 (LOK)” (ACS Medicinal Chemistry Letters, 2025)

How the values were obtained:
CAMK1GA = biological target: T1, CAMK1GA (Homo sapiens, UniProt Q96NX5); assay: DSF Tm panel; assay type: binding; settings: 10 μM compound
T1 construct: purchased in-house DSF kinase panel (SGC-style construct names; the trailing letter is the construct ID)

RPS6KA1A = assay: DSF Tm panel; assay type: binding; settings: 10 μM compound
VRK1A = biological target: T2, VRK1A (Homo sapiens, UniProt Q99986); assay: DSF Tm panel; assay type: binding; settings: 10 μM compound
T2 construct: purchased in-house DSF kinase panel (SGC-style construct names; the trailing letter is the construct ID)
T2 sequence (Q99986 1-396): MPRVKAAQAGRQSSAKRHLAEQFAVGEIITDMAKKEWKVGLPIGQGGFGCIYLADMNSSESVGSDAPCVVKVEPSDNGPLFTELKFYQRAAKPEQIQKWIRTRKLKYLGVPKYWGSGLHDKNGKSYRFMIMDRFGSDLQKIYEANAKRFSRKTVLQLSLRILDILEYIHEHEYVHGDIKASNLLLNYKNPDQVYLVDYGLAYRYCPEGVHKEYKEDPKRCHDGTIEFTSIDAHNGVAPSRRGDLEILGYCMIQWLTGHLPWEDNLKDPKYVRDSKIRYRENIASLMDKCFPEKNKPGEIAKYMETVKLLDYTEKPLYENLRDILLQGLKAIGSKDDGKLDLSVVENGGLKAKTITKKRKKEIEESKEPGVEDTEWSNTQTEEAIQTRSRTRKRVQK

MAPK1A = biological target: T3, MAPK1A (Homo sapiens, UniProt P28482); assay: DSF Tm panel; assay type: binding; settings: 10 μM compound
T3 construct: purchased in-house DSF kinase panel (SGC-style construct names; the trailing letter is the construct ID)
T3 sequence (P28482 whole entry): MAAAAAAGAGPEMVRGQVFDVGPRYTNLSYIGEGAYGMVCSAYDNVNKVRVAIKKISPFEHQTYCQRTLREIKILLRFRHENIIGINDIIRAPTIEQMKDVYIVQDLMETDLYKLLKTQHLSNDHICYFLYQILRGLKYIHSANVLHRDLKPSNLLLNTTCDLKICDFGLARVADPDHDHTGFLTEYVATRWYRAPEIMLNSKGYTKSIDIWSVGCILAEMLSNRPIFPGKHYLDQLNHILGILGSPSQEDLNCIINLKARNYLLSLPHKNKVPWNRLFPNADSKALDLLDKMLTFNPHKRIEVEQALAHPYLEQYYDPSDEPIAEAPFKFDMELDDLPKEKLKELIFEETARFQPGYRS

FGFR3A = biological target: T4, FGFR3A (Homo sapiens, UniProt P22607); assay: DSF Tm panel; assay type: binding; settings: 10 μM compound
T4 construct: purchased in-house DSF kinase panel (SGC-style construct names; the trailing letter is the construct ID)
T4 sequence (P22607 472-761): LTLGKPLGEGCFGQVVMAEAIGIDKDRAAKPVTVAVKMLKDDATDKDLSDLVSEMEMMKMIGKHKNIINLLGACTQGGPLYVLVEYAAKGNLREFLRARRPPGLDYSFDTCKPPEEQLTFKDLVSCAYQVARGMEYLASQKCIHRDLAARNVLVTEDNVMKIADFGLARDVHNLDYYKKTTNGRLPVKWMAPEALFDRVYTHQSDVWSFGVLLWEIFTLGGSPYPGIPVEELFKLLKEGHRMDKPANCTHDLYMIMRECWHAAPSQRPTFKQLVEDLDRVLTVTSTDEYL

CDC42BPAA = assay: DSF Tm panel; assay type: binding; settings: 10 μM compound
STK3 (STK3A) = biological target: T5, STK3 (STK3A) (Homo sapiens, UniProt Q13188); assay: DSF Tm panel; assay type: binding; settings: 10 μM compound
T5 construct: purchased in-house DSF kinase panel (SGC-style construct names; the trailing letter is the construct ID)
T5 sequence (Q13188 16-313): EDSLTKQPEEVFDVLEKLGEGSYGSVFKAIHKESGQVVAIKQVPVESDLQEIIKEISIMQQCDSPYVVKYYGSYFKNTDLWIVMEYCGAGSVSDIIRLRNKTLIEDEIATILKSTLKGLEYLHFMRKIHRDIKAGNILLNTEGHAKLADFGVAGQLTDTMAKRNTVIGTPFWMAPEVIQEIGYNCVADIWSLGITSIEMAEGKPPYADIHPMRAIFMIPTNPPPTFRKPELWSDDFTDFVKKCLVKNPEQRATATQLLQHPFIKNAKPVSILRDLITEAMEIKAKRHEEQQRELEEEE

PKMYT1A = biological target: T6, PKMYT1A (Homo sapiens, UniProt Q99640); assay: DSF Tm panel; assay type: binding; settings: 10 μM compound
T6 construct: purchased in-house DSF kinase panel (SGC-style construct names; the trailing letter is the construct ID)
T6 sequence (Q99640 75-362): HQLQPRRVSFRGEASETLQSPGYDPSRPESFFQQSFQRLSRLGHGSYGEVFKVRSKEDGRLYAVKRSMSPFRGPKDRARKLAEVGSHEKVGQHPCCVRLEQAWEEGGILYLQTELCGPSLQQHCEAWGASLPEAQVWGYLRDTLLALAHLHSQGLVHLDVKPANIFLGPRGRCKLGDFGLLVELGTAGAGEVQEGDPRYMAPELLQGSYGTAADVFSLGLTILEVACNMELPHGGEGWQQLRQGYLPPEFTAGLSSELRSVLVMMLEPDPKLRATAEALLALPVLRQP

MAP2K6A = biological target: T7, MAP2K6A (Homo sapiens, UniProt P52564); assay: DSF Tm panel; assay type: binding; settings: 10 μM compound
T7 construct: purchased in-house DSF kinase panel (SGC-style construct names; the trailing letter is the construct ID)
T7 sequence (P52564 53-314): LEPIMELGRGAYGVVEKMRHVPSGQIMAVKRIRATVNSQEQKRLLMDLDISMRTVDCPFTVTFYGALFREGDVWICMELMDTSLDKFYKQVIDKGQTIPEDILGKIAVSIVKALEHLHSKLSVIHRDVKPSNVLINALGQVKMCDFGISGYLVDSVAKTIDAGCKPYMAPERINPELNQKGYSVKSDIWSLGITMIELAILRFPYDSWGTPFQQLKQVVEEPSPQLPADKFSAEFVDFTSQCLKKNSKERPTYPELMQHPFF

ABL1 (ABL1A) = biological target: T8, ABL1 (ABL1A) (Homo sapiens, UniProt P00519); assay: DSF Tm panel; assay type: binding; settings: 10 μM compound
T8 construct: purchased in-house DSF kinase panel (SGC-style construct names; the trailing letter is the construct ID)
T8 sequence (P00519 229-512): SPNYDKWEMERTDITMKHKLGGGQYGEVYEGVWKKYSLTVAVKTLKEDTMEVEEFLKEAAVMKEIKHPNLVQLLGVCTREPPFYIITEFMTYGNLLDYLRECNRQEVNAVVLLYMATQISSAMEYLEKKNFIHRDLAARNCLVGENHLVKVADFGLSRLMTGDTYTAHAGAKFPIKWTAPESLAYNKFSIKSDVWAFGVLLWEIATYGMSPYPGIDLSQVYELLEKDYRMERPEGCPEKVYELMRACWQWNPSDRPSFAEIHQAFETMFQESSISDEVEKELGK

MELKA = biological target: T9, MELKA (Homo sapiens, UniProt Q14680); assay: DSF Tm panel; assay type: binding; settings: 10 μM compound
T9 construct: purchased in-house DSF kinase panel (SGC-style construct names; the trailing letter is the construct ID)
T9 sequence (Q14680 1-340): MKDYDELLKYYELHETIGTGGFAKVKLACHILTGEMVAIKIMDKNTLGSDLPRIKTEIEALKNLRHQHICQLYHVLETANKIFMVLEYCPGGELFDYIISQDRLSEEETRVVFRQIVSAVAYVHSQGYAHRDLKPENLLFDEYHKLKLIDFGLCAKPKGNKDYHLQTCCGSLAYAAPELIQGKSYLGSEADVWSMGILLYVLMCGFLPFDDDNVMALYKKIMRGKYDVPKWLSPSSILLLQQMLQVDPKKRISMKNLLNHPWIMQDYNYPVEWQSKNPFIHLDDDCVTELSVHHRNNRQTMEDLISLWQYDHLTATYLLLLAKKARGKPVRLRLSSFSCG

PIM1 (PIM1A) = biological target: T10, PIM1 (PIM1A) (Homo sapiens, UniProt P11309); assay: DSF Tm panel; assay type: binding; settings: 10 μM compound
T10 construct: purchased in-house DSF kinase panel (SGC-style construct names; the trailing letter is the construct ID)
T10 sequence (P11309 whole entry): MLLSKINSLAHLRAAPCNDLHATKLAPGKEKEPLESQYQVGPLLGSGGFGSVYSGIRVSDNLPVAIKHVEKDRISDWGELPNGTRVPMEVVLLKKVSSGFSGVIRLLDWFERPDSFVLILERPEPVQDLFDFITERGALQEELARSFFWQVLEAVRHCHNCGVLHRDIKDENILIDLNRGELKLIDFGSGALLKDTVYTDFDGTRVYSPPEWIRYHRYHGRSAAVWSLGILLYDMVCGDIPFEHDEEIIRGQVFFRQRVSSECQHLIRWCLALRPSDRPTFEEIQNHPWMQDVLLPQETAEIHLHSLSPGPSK

SLK = SLK (Homo sapiens, UniProt Q9H2G2); assay: NanoBRET target engagement assay; assay type: cell-based; parameters: has a greater impact on the full-length protein than on the kinase domains; host or cells: HEK293T (ATCC CRL-3216); settings: HEK293T cells
SLK, sequence (Q9H2G2 whole entry, the tested form may be a part): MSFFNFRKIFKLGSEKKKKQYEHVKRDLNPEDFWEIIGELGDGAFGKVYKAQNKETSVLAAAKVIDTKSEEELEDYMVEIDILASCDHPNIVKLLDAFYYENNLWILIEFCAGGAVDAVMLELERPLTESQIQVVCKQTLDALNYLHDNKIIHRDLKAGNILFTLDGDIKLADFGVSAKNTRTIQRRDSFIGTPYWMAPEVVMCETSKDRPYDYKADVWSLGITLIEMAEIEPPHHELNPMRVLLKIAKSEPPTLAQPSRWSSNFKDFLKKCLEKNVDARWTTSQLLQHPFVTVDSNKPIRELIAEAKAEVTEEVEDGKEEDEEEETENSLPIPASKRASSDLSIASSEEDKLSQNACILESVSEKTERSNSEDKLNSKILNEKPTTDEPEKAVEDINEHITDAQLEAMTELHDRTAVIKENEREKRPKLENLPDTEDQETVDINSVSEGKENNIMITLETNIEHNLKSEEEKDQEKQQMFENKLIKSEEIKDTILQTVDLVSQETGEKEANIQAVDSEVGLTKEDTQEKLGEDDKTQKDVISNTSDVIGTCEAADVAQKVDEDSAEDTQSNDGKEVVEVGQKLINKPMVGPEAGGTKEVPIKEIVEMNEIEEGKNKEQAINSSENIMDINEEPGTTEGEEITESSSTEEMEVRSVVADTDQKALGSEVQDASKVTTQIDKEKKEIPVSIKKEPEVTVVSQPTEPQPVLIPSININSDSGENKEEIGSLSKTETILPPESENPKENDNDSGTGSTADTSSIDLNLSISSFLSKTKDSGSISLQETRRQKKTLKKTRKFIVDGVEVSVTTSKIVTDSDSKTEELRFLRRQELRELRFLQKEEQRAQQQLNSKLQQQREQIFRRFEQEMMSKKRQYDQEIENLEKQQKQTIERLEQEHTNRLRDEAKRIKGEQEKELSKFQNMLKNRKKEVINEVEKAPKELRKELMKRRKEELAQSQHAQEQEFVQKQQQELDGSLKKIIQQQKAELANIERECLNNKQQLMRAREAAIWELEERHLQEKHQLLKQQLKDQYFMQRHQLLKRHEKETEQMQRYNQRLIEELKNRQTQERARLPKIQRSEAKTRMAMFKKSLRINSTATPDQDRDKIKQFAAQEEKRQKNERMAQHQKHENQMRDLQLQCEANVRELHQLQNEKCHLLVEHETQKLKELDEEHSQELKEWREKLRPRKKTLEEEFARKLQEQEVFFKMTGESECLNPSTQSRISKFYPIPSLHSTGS

MSSK1A = biological target: T11, MSSK1A (Homo sapiens, UniProt Q9UPE1); assay: DSF Tm panel; assay type: binding; settings: 10 μM compound
T11 construct: purchased in-house DSF kinase panel (SGC-style construct names; the trailing letter is the construct ID)
T11 sequence (Q9UPE1 79-565): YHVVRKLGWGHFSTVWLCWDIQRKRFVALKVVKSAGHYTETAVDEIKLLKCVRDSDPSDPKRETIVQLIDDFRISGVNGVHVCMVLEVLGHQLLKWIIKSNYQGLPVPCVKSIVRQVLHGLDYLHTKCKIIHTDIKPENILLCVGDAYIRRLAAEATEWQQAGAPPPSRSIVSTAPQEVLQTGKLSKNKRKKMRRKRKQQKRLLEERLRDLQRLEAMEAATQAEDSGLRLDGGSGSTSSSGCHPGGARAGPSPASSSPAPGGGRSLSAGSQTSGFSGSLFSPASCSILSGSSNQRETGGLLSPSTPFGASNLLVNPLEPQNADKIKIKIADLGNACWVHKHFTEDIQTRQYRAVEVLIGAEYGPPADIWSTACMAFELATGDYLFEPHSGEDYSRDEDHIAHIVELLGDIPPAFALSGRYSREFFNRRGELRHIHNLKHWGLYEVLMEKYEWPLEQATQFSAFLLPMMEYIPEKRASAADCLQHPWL

AURKBA = biological target: T12, AURKBA (Homo sapiens, UniProt Q96GD4); assay: DSF Tm panel; assay type: binding; settings: 10 μM compound
T12 construct: purchased in-house DSF kinase panel (SGC-style construct names; the trailing letter is the construct ID)
T12 sequence (Q96GD4 whole entry): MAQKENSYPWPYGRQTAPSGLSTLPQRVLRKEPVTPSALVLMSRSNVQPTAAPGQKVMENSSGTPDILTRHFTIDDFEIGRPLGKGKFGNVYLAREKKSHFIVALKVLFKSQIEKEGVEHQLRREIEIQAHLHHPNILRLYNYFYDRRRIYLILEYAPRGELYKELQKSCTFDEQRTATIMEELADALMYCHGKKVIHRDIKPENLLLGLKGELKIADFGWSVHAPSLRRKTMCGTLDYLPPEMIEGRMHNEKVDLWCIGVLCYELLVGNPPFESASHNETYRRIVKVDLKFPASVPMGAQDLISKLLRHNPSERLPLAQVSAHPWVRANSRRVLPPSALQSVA

T1 sequence (Q96NX5 18-316): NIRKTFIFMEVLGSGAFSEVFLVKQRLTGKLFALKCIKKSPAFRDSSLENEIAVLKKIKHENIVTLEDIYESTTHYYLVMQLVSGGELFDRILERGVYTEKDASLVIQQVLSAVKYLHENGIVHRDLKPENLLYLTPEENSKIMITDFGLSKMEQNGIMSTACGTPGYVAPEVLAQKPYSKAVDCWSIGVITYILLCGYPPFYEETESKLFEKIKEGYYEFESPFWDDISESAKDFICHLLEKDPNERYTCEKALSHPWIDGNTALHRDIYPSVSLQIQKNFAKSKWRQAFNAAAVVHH

| ΔTm at 10 µM (CAMK1GA) [°C] | ΔTm at 10 µM (VRK1A) [°C] | ΔTm at 10 µM (MAPK1A) [°C] | ΔTm at 10 µM (FGFR3A) [°C] | ΔTm at 10 µM (STK3 (STK3A)) [°C] | ΔTm at 10 µM (PKMYT1A) [°C] | ΔTm at 10 µM (MAP2K6A) [°C] | ΔTm at 10 µM (ABL1 (ABL1A)) [°C] | ΔTm at 10 µM (MELKA) [°C] | ΔTm at 10 µM (PIM1 (PIM1A)) [°C] | EC50 (SLK) [µM] | ΔTm at 10 µM (MSSK1A) [°C] | ΔTm at 10 µM (AURKBA) [°C] | SMILES | ΔTm RPS6KA1A (RPS6KA1A) | ΔTm CDC42BPAA (CDC42BPAA) |
| --- | --- | --- | --- | --- | --- | --- | --- | --- | --- | --- | --- | --- | --- | --- | --- |
|  | 0.3 | 1.6 |  | 3.9 | 0.2 | 1.1 | 1.5 | 2.1 | 1.6 | > 50 | 0.4 | 9.1 | COc1cc(CNC(=O)Nc2ccc3cc2OCCOCCNc2ccn4ncc-3c4n2)ccc1F [compound 33] | 0,5 °C | 0,1 °C |
| 2 | 0.9 | 0.3 | 1.6 | 6.9 | 1.9 | 1.3 | 2.3 | 2.4 | 2.8 | > 50 |  |  | O=C(NCc1ccc(Cl)cc1F)Nc1ccc2cc1OCCOCCNc1ccn3ncc-2c3n1 [compound 21] | 1,1 °C | 0,4 °C |
|  | 0.5 | 0.8 |  | 4.1 | 0.3 | 0.7 | 0.6 | 1.1 | 1 | > 50 | 0.4 | 7.8 | Cc1ccc(F)cc1CNC(=O)Nc1ccc2cc1OCCOCCNc1ccn3ncc-2c3n1 [compound 26] | 0,3 °C | 0,2 °C |
|  | 0.2 | 0.7 |  | 4.7 | 0.4 | 1 | 1.7 | 1.4 | 1.7 | > 50 | 0.4 | 7.9 | COc1ccc(CNC(=O)Nc2ccc3cc2OCCOCCNc2ccn4ncc-3c4n2)cc1F [compound 32] | 0,8 °C | 0,1 °C |
|  | 1 | 0.7 |  | 3.8 | 0.5 | 0.6 | -0.4 | 0 | 0.5 | > 50 | 0.2 | 7.7 | Cc1cc(Br)ccc1CNC(=O)Nc1ccc2cc1OCCOCCNc1ccn3ncc-2c3n1 [compound 24] | 0,1 °C | 0,7 °C |

More lines, now with the values behind:

| SMILES | ΔTm at 10 µM (CAMK1GA) [°C] | ΔTm at 10 µM (VRK1A) [°C] | ΔTm at 10 µM (MAPK1A) [°C] | ΔTm at 10 µM (FGFR3A) [°C] | ΔTm at 10 µM (STK3 (STK3A)) [°C] | ΔTm at 10 µM (PKMYT1A) [°C] | ΔTm at 10 µM (MAP2K6A) [°C] | ΔTm at 10 µM (ABL1 (ABL1A)) [°C] | ΔTm at 10 µM (MELKA) [°C] | ΔTm at 10 µM (PIM1 (PIM1A)) [°C] | EC50 (SLK) [µM] | ΔTm at 10 µM (MSSK1A) [°C] | ΔTm at 10 µM (AURKBA) [°C] | ΔTm RPS6KA1A (RPS6KA1A) | ΔTm CDC42BPAA (CDC42BPAA) |
| --- | --- | --- | --- | --- | --- | --- | --- | --- | --- | --- | --- | --- | --- | --- | --- |
| O=C(NCc1ccc(Cl)cc1)Nc1ccc2cc1OCCOCCNc1ccn3ncc-2c3n1 [compound 19] | 0.9 | 0.1 | 0.1 | 1.7 | 6.7 | 1.4 | 1.1 | 1.8 | 1.5 | 1.8 | > 50 |  |  | 0,4 °C | 0,0 °C |
| O=C(NCc1ccccc1Cl)Nc1ccc2cc1OCCOCCNc1ccn3ncc-2c3n1 [compound 17] | 0.9 | 0.1 | 0.3 | 2.1 | 6.2 | 1 | 0.9 | 1.7 | 2.4 | 1.5 | > 50 |  |  | 1,2 °C | 0,1 °C |
| COc1ccccc1CNC(=O)Nc1ccc2cc1OCCOCCNc1ccn3ncc-2c3n1 [compound 29] |  | 0 | 0.7 |  | 3.4 | -0.1 | 0.7 | 0.7 | 1 | 1 | > 50 | 0.5 | 6.6 | 0,5 °C | 0,3 °C |
| O=C(NCc1ccccc1)Nc1ccc2cc1OCCOCCNc1ccn3ncc-2c3n1 [compound 16] | -0.3 | -0.4 | -0.1 | 5 | 5.9 | 0.6 | 1.4 | 1.2 | 2 | 1.2 | > 50 |  |  | 1,4 °C | -0,2 °C |
| C[C@H](NC(=O)Nc1ccc2cc1OCCOCCNc1ccn3ncc-2c3n1)c1ccccc1 [compound 34] |  | 0 | 0.7 |  | 3.6 | -0.1 | 0.8 | 1.3 | 1.3 | 0.6 | > 50 | 0.4 | 7.1 | 0,4 °C | 0,1 °C |
| O=C(NCc1ccccc1C(F)(F)F)Nc1ccc2cc1OCCOCCNc1ccn3ncc-2c3n1 [compound 27] |  | 0.4 | 0.9 |  | 4.7 | 0.7 | 1.2 | 2.4 | 0.4 | 1.1 | > 50 | 0.5 | 8.6 | 0,2 °C | 1,0 °C |
| COc1ccc(CNC(=O)Nc2ccc3cc2OCCOCCNc2ccn4ncc-3c4n2)cc1 [compound 31] |  | 0.2 | 0.9 |  | 4.4 | 0.3 | 1.2 | 1.7 | 1.7 | 2 |  | 0.7 | 7.6 |  | 0,0 °C |
| O=C(NCc1ccc(C(F)(F)F)cc1)Nc1ccc2cc1OCCOCCNc1ccn3ncc-2c3n1 [compound 28] |  | 0.6 | 0.9 |  | 5.1 | 1.1 | 1.1 | 0.9 | 0.9 | 1 | > 50 | 0.3 | 9 | 0,2 °C | 0,9 °C |
| COc1cccc(CNC(=O)Nc2ccc3cc2OCCOCCNc2ccn4ncc-3c4n2)c1 [compound 30] |  | 0.3 | 0.6 |  | 3.7 | 0 | 0.9 | 1.5 | 1.3 | 1 | > 50 | 0.4 | 7.3 | 0,6 °C | 0,2 °C |
